# Reference: ChEMBL document CHEMBL1201862, “PubChem BioAssay data set” (2004)
#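 Test compounds were applied to cells in 96-well plates for 48 hours at 5 doses. GI50 is the concentration that inhibits growth by half.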 Active and inactive are the calls of the source. Rule as the data show it: active = GI50 up to about 1.1 µM and inactive = higher.
# Columns and labels:
# Experiment in all cases: NCI tumour cell line growth inhibition, 48 h
# [1] = test system: 786-0
# [2] = test system: SK-OV-3
# [3] = test system: NCI-H23
# [4] = test system: ACHN
# [5] = test system: SK-MEL-28
# [6] = test system: MDA-MB-435
# [7] = test system: NCI-H522
# [8] = test system: KM12
# [9] = test system: SK-MEL-5
# [10] = test system: COLO 205
# [11] = test system: SK-MEL-2
# [12] = test system: SW-620
# [13] = test system: SR
# [14] = test system: MDA-N
# [15] = test system: CCRF-CEM
# [16] = test system: OVCAR-3
# [17] = test system: SF-295
# [18] = test system: SF-539
# [19] = test system: UACC-62
# [20] = test system: OVCAR-5
# [21] = test system: TK-10
# [22] = test system: HCC 2998
# [23] = test system: A498
# [24] = test system: Malme-3M
# [25] = test system: Hs-578T
# [26] = test system: M14
# [27] = test system: OVCAR-4
# [28] = test system: LOX IMVI
# [29] = test system: DU-145
# [30] = test system: T47D
# [31] = test system: A549
# [32] = test system: HOP-92
# [33] = test system: NCI/ADR-RES
# [34] = test system: IGROV-1
# [35] = test system: HCT-116
# [36] = test system: SNB-19
# [37] = test system: NCI-H460
# [38] = test system: MOLT-4
# [39] = test system: HCT-15
# [40] = test system: HL-60
# [41] = test system: SNB-75
# [42] = test system: UACC-257
# [43] = test system: MCF7
# [44] = test system: SF-268
# [45] = test system: K562
# [46] = test system: MDA-MB-231
# [47] = test system: OVCAR-8
# [48] = test system: CAKI-1
# [49] = test system: NCI-H226
# [50] = test system: HOP-62
# [51] = test system: U-251
# [52] = test system: SN12C
# [53] = test system: RXF 393
# [54] = test system: PC-3
# [55] = test system: EKVX
# [56] = test system: HT-29
# [57] = test system: RPMI-8226
# [58] = test system: UO-31
compound,measurement,setting,value
CC(C)(C)C(=O)Oc1ccc(/C=C/C(=O)c2ccc(OC(=O)C(C)(C)C)cc2)cc1,GI50,[1],36.7 µM (inactive)
same,GI50,[2],> 100 µM (inactive)
same,GI50,[3],35.7 µM (inactive)
same,GI50,[4],> 100 µM (inactive)
same,GI50,[5],97.3 µM (inactive)
same,GI50,[6],55.2 µM (inactive)
same,GI50,[7],3.12 µM (inactive)
same,GI50,[8],16.6 µM (inactive)
same,GI50,[9],> 100 µM (inactive)
same,GI50,[10],69.7 µM (inactive)
same,GI50,[11],> 100 µM (inactive)
same,GI50,[12],> 100 µM (inactive)
same,GI50,[13],20.7 µM (inactive)
same,GI50,[14],39.1 µM (inactive)
same,GI50,[15],6.53 µM (inactive)
same,GI50,[16],27.5 µM (inactive)
same,GI50,[17],93.3 µM (inactive)
same,GI50,[18],33 µM (inactive)
same,GI50,[19],> 100 µM (inactive)
same,GI50,[20],> 100 µM (inactive)
same,GI50,[21],> 100 µM (inactive)
same,GI50,[22],> 100 µM (inactive)
same,GI50,[23],81.5 µM (inactive)
same,GI50,[24],> 100 µM (inactive)
same,GI50,[25],18 µM (inactive)
same,GI50,[26],> 100 µM (inactive)
same,GI50,[27],56.2 µM (inactive)
same,GI50,[28],44.5 µM (inactive)
same,GI50,[29],41 µM (inactive)
same,GI50,[30],91.2 µM (inactive)
same,GI50,[31],67.6 µM (inactive)
same,GI50,[32],> 100 µM (inactive)
same,GI50,[33],27.5 µM (inactive)
same,GI50,[34],> 100 µM (inactive)
same,GI50,[35],23.3 µM (inactive)
same,GI50,[36],45.2 µM (inactive)
same,GI50,[37],> 100 µM (inactive)
same,GI50,[38],24.4 µM (inactive)
same,GI50,[39],96.4 µM
same,GI50,[40],47 µM (inactive)
same,GI50,[41],64.9 µM (inactive)
same,GI50,[42],60.5 µM (inactive)
same,GI50,[43],46.5 µM (inactive)
same,GI50,[44],74 µM (inactive)
same,GI50,[45],26.3 µM (inactive)
same,GI50,[46],> 100 µM (inactive)
same,GI50,[47],40.4 µM (inactive)
same,GI50,[48],21.1 µM (inactive)
same,GI50,[49],> 100 µM (inactive)
same,GI50,[50],82.2 µM (inactive)
same,GI50,[51],40.2 µM (inactive)
same,GI50,[52],42.8 µM (inactive)
same,GI50,[53],38.8 µM (inactive)
same,GI50,[54],> 100 µM (inactive)
same,GI50,[55],81.1 µM (inactive)
same,GI50,[56],47.3 µM (inactive)
C#CCn1c(=O)c2ccccc2n(CC#C)c1=O,GI50,[1],> 10 µM (inactive)
same,GI50,[2],> 10 µM (inactive)
same,GI50,[3],> 10 µM (inactive)
same,GI50,[4],> 10 µM (inactive)
same,GI50,[5],> 10 µM (inactive)
same,GI50,[6],> 10 µM (inactive)
same,GI50,[7],> 10 µM (inactive)
same,GI50,[8],> 10 µM (inactive)
same,GI50,[9],> 10 µM (inactive)
same,GI50,[10],> 10 µM (inactive)
same,GI50,[11],> 10 µM (inactive)
same,GI50,[12],> 10 µM (inactive)
same,GI50,[14],> 10 µM (inactive)
same,GI50,[15],> 10 µM (inactive)
same,GI50,[16],> 10 µM (inactive)
same,GI50,[17],> 10 µM (inactive)
same,GI50,[18],> 10 µM (inactive)
same,GI50,[20],> 10 µM (inactive)
same,GI50,[21],> 10 µM (inactive)
same,GI50,[22],> 10 µM (inactive)
same,GI50,[23],> 10 µM (inactive)
same,GI50,[24],> 10 µM (inactive)
same,GI50,[25],> 10 µM (inactive)
same,GI50,[26],> 10 µM (inactive)
same,GI50,[57],> 10 µM (inactive)
same,GI50,[27],> 10 µM (inactive)
same,GI50,[28],> 10 µM (inactive)
same,GI50,[29],> 10 µM (inactive)
same,GI50,[30],> 10 µM (inactive)
same,GI50,[31],> 10 µM (inactive)
same,GI50,[32],> 10 µM (inactive)
same,GI50,[33],> 10 µM (inactive)
same,GI50,[34],> 10 µM (inactive)
same,GI50,[35],> 10 µM (inactive)
same,GI50,[36],> 10 µM (inactive)
same,GI50,[37],> 10 µM (inactive)
same,GI50,[38],> 10 µM (inactive)
same,GI50,[39],> 10 µM
same,GI50,[41],> 10 µM (inactive)
same,GI50,[42],> 10 µM (inactive)
same,GI50,[43],> 10 µM (inactive)
same,GI50,[44],> 10 µM (inactive)
same,GI50,[45],> 10 µM (inactive)
same,GI50,[58],> 10 µM (inactive)
same,GI50,[46],> 10 µM (inactive)
same,GI50,[47],> 10 µM (inactive)
same,GI50,[48],> 10 µM (inactive)
same,GI50,[49],> 10 µM (inactive)
same,GI50,[50],> 10 µM (inactive)
same,GI50,[51],> 10 µM (inactive)
same,GI50,[52],> 10 µM (inactive)
same,GI50,[53],> 10 µM (inactive)
same,GI50,[54],> 10 µM (inactive)
same,GI50,[55],> 10 µM (inactive)
same,GI50,[56],> 10 µM (inactive)
COc1ccc(N2C(=O)C3c4[nH]c5ccc(F)cc5c4C4CCC(C(C)(C)C)CC4C3C2=O)cc1 (centres undefined),GI50,[2],> 10 µM (inactive)
same,GI50,[3],> 10 µM (inactive)
same,GI50,[4],> 10 µM (inactive)
same,GI50,[5],> 10 µM (inactive)
same,GI50,[6],> 10 µM (inactive)
same,GI50,[7],6.87 µM (inactive)
same,GI50,[8],> 10 µM (inactive)
same,GI50,[9],> 10 µM (inactive)
same,GI50,[10],> 10 µM (inactive)
same,GI50,[11],> 10 µM (inactive)
same,GI50,[12],7.26 µM (inactive)
same,GI50,[13],> 10 µM (inactive)
same,GI50,[14],> 10 µM (inactive)
same,GI50,[15],7.13 µM (inactive)
same,GI50,[16],> 10 µM (inactive)
same,GI50,[17],6.04 µM (inactive)
same,GI50,[18],6.35 µM (inactive)
same,GI50,[19],7.43 µM (inactive)
same,GI50,[20],> 10 µM (inactive)
same,GI50,[21],9.38 µM (inactive)
same,GI50,[22],> 10 µM (inactive)
same,GI50,[23],> 10 µM (inactive)
same,GI50,[24],> 10 µM (inactive)
same,GI50,[25],2.81 µM (inactive)
same,GI50,[26],7.85 µM (inactive)
same,GI50,[57],> 10 µM (inactive)
same,GI50,[27],6.05 µM (inactive)
same,GI50,[29],> 10 µM (inactive)
same,GI50,[30],9.25 µM (inactive)
same,GI50,[31],7.1 µM (inactive)
same,GI50,[33],9.08 µM (inactive)
same,GI50,[34],> 10 µM (inactive)
same,GI50,[35],4.14 µM (inactive)
same,GI50,[36],> 10 µM (inactive)
same,GI50,[37],5.07 µM (inactive)
same,GI50,[38],> 10 µM (inactive)
same,GI50,[39],> 10 µM
same,GI50,[40],> 10 µM (inactive)
same,GI50,[41],1.84 µM (inactive)
same,GI50,[43],> 10 µM (inactive)
same,GI50,[44],8.28 µM (inactive)
same,GI50,[58],> 10 µM (inactive)
same,GI50,[46],> 10 µM (inactive)
same,GI50,[47],7.8 µM (inactive)
same,GI50,[48],> 10 µM (inactive)
same,GI50,[49],> 10 µM (inactive)
same,GI50,[50],7.23 µM (inactive)
same,GI50,[51],5.02 µM (inactive)
same,GI50,[52],> 10 µM (inactive)
same,GI50,[53],> 10 µM (inactive)
same,GI50,[54],7.33 µM (inactive)
same,GI50,[55],> 10 µM (inactive)
same,GI50,[56],6.28 µM (inactive)
